Assay results from US20110092488A1, “Quninoline Methanol Compounds for the Treatment and Prevention of Parasitic Infections” (priority 2005, published 2011).
In brackets after ≈: the same amount, converted by molar mass. Like-named read-outs stand apart in the source and are kept apart here.

Experiments:
[1] = humans; cited from earlier work
[2] = system: P. falciparum W2; assay: In vitro antimalarial activity against P. falciparum W2; assay type: cell-based, Plasmodium falciparum
Description: (§1) The in vitro activities of AAQMs against P. falciparum strains W2, D6, TM91C235 and TM90C2A were evaluated using the method of Desjardins et al. as modified by Milhous et al. W2 is chloroquine resistant and mefloquine sensitive, D6 is chloroquine sensitive but naturally less susceptible to mefloquine, TM91C235 is resistant to mefloquine, chloroquine and pyrimethamine as is TM90C2A, however this latter parasite is a two pfmdr1 copy strain. We routinely run mefloquine in this screen as a control to ensure assay validity.

[3] = single mefloquine treatment dose; cited from earlier work
[4] = system: neuronal calcium homeostasis; assay: Neuronal calcium homeostasis, confocal microscopy (Fluo-3); conditions: 100 μM, FIG. 2(b)
Description: (§2) The neurocytotoxicity assay of AAQMs was conducted as per Dow et al.; The antimalarial potential of 4-quinolinecarbinolamines may be limited due to neurotoxicity and cross-resistance in mefloquine-resistant Plasmodium falciparum strains; Chemother. (48) 2624-2632 (2004) and is incorporated herein, by reference. This assay utilizes primary rat forebrain neurons and is a multi-endpoint screen. […] The AAQMs outlined in Table 1 were screened at 10, 100 and 1000 μM in triplicate, and the reduction in viability observed was determined using the 3-(4,5-dimethylthiazol-2-yl)-2,5-diphenyltetrazolium bromide (MTT) assay as per Dow et al., discussed above. Approximate IC50 values were calculated on the basis of the level of inhibition observed at each concentration. […] IC50s were calculated using Prism. […] Neurons were exposed to DNQX (100 μM) or magnesium (12 mM) for 5 min, followed by mefloquine (25 μM) or WR069878 (250 μM) for 20 min after which reduction in cell viability was determined. […] The effects of mefloquine and WR069878 on neuronal calcium homeostasis were assessed utilizing confocal microscopy as per Dow et al, as discussed in Antimicrob Agents Chemother. […] Subsequent changes in neuronal calcium homeostasis were recorded as fluctuations in the emitted fluorescence of fluo-3-complexed calcium at 530 nm (excitation was 488 nm). […]

[5] = system: P. falciparum TM91C235; assay: In vitro antimalarial activity against P. falciparum TM91C235; assay type: cell-based, Plasmodium falciparum
Description: as §1

[6] = rats; cited from earlier work
[7] = system: P. falciparum TM90C2A; assay: In vitro antimalarial activity against P. falciparum TM90C2A; assay type: cell-based, Plasmodium falciparum
Description: as §1

[8] = system: primary rat forebrain neurons; assay: Neurocytotoxicity assay (MTT)
Description: The neurocytotoxicity assay of AAQMs was conducted as per Dow et al.; The antimalarial potential of 4-quinolinecarbinolamines may be limited due to neurotoxicity and cross-resistance in mefloquine-resistant Plasmodium falciparum strains; Chemother. (48) 2624-2632 (2004) and is incorporated herein, by reference. This assay utilizes primary rat forebrain neurons and is a multi-endpoint screen. […] The AAQMs outlined in Table 1 were screened at 10, 100 and 1000 μM in triplicate, and the reduction in viability observed was determined using the 3-(4,5-dimethylthiazol-2-yl)-2,5-diphenyltetrazolium bromide (MTT) assay as per Dow et al., discussed above. Approximate IC50 values were calculated on the basis of the level of inhibition observed at each concentration. Full dose response assays were run for mefloquine and WR069878 with two fold dilutions (n=6 wells per dilution) and 11 dilutions for each drug. IC50s were calculated using Prism. Each time the assay is conducted, 20 μM mefloquine is included, as a control. […] Assays are re-run if the loss of viability induced by mefloquine is <40% or >60%. Neuroprotection experiments with 6,7-dinitroquinoxaline-2,3-dione (DNQX) and magnesium were performed as per Dow et al.; Transcriptional profiling of mefloquine-induced disruption of calcium homeostasis in neurons in vitro; Genomics (86)539-550 (2005), which is incorporated by reference, herein. Neurons were exposed to DNQX (100 μM) or magnesium (12 mM) for 5 min, followed by mefloquine (25 μM) or WR069878 (250 μM) for 20 min after which reduction in cell viability was determined. […] DNQX is an inhibitor of non-N-methyl-D-aspartate (NMDA) receptors, whilst magnesium inhibits the functioning of the inositol 1,4,5-trisphosphate (IP3)-mediated calcium signaling pathway at several points. The effects of mefloquine and WR069878 on neuronal calcium homeostasis were assessed utilizing confocal microscopy as per Dow et al, as discussed in Antimicrob Agents Chemother. (48)2624-2632 (2004), cited above, and incorporated by reference, herein. Briefly neurons were loaded with calcium sensitive dye Fluo 3-A for 1 h and were washed prior to image experiments. Neurons were ‘spiked’ with 100 μM mefloquine or WR069878. Subsequent changes in neuronal calcium homeostasis were recorded as fluctuations in the emitted fluorescence of fluo-3-complexed calcium at 530 nm (excitation was 488 nm). Sequential image scans of fields containing 5-25 neurons were used to construct temporal profiles. Scans were made at 10 s intervals. Fluorescence levels for each neuron were normalized 12 to time zero values. Data were then pooled from three and five independent experiments for mefloquine and WR069878 respectively.

[9] = target: human multiple drug resistance transporter (MDR1), P-glycoprotein (Homo sapiens, UniProt P08183); conditions: not told; cited from earlier work
[10] = Phototoxicity in mice (historical experiments); conditions: WR030090: 25 or 50 mg/kg orally, WRAIR archival data
[11] = system: P. falciparum D6; assay: In vitro antimalarial activity against P. falciparum D6; assay type: cell-based, Plasmodium falciparum
Description: as §1
The combined effects of azithromycin (as represented by compound 196 on the horizontal axes of FIG. 4 through 6) and WR074086 (as represented by compound 14885 on vertical axes of FIGS. 4 through 6) against three strains of P. falciparum were investigated using isobologram analysis. First, the IC50s of each compound were determined as described above.

[12] = Description: The AAQMs indicated in Table 1 (10 μM) were added to a mixture containing an NADPH-regenerating buffer (1.25 mM β-NADP+, 3.3 mM glucose-6-phosphate, and 3.3 mM MgCl2) and 0.5 mg/ml pooled human liver microsomes to a final volume of 125 μl. The mixtures were incubated for 5 minutes at 37° C. and the reactions were initiated by adding 25 μl glucose-6-phosphate dehydrogenase to a final concentration of 1 unit/ml. The reactions were maintained at 37° C. until they were terminated by the addition of an equal volume of 100% ice cold acetonitrile at 0, 10, 30, 60, and 120 minutes. Samples were centrifuged to pellet the proteins and the supernatant was analyzed by LC-MS/MS in duplicate using fast LC gradient or isocratic methods. AAQM concentrations were quantified with external calibration, using plots of response v. amount. Chromatograms were analyzed using the mass spectrometry software Xcalibur® QuanBrowser (for ThermoFinnigan® instruments) or MassLynx® (for Waters® instruments). Concentrations of AAQMs remaining at each time point were calculated using the unknown peak areas and corresponding calibration curves. In order to calculate the half-life, a first-order rate of decay was assumed. […] All reagents were purchased from Sigma except for the microsomes, which were obtained from BD Gentest®. For metabolite identification, samples were prepared as described above with human liver microsomes. Additional samples were prepared with for each AAQM using mouse, rat, and rhesus monkey liver microsomes. Samples were separated using an LC gradient method and analyzed by full scan LC-MS and LC-MS/MS. […] These MS/MS data were also used to do preliminary structural elucidation. […] The relative percentage of formation of each metabolite was determined in a semi-quantitative manner since standards of each metabolite were not available. Peak areas of each detected AAQM metabolite and the internal standard were determined, and their ratios were calculated as metabolite area/internal standard area. The percent formation of each metabolite was determined as the area ratio divided by the sum of all the metabolite area ratios.
[13] = system: primary rat forebrain neurons; assay: Neuroprotection experiments with DNQX and magnesium; conditions: DNQX 100 μM or magnesium 12 mM; mefloquine 25 μM, WR069878 250 μM; FIG. 2(c)
Description: as §2

## OC(c1cc(C(F)(F)F)nc2c(C(F)(F)F)cccc12)C1CCCCN1 (stereo not drawn) [Mefloquine, reference compound]
[1]
  Maximum concentration in CNS: 52 µM
[2]
  IC90 against W2: 0.0039 µg/mL (≈ 0.0103 µM)
[3]
  Peak plasma concentrations: 800 to 8000 ng/mL
[4]
  Effect on intracellular calcium (Fluo-3 fluorescence): increases intracellular calcium concentrations
[5]
  Activity against P. falciparum TM91C235 (IC50 in ng/ml): 15 ng/mL
[5]; Table 4, read-out: Median IC50 against P. falciparum TM91C235
  IC50: 0.035 µM
[5]; control, last 15 assays
  Mean IC50 +/- SD against P. falciparum TM91C235: 0.0157 ± 0.0027 µg/mL
[5]; text b26
  IC90 against TM91C235: 0.089 µg/mL (≈ 0.235 µM)
[6]
  Maximum concentration in CNS: 113 µM
[7]
  IC90 against TM90C2A: 0.101 µg/mL (≈ 0.267 µM)
[8]; read-out: Median IC50 against rat neurons, Table 4
  IC50: 20 µM
[8]; read-out: Neurotoxicity IC50, full dose response, FIG. 2(a)
  IC50: 27 µM
[8]; read-out: Neurotoxicity ranking (IC50 in μM), approximate IC50 from screen at 10, 100 and 1000 μM, MTT
  IC50: 20 µM
[9]
  PgP interaction: PgP substrate and inhibitor
[10]
  Phototoxicity in mice: Not phototoxic at tolerated doses
[11]
  IC90 against D6: 0.02 µg/mL (≈ 0.0529 µM)
[12]
  Half-life, human liver microsomes: > 2 h
[13]
  Neurotoxicity blocked by DNQX and supra-physiological magnesium: is blocked
